How the values were obtained:
MDA-MB 435 = experiment: Study of cytotoxicity (CellTiter-Blue, 72 hours); assay type: cell-based; conditions: Homo sapiens, MDA-MB-435; 72 hours of incubation; read-out: IC50 for different cell lines: M435
Experimental: (§1) The biological activity of the compounds of the invention was studied in vitro on 7 human cancer cell lines with different tissue origins (HCT116: colorectal carcinoma; K562: chronic myeloid leukemia; B16-F10: melanoma; U87: glioblastoma; A549: lung cancer and MDA-MB 231 and MDA-MB 435: breast cancer). The cells selected for the study were incubated at 37° C. in the presence of one of the compounds added into the culture medium at different concentrations. The whole of the conducted experiments allowed determination of the toxicity level of the tested compound, its effect on the course of the cell cycle as well as its capacity of inducing cell death by apoptosis.
(§2) The cancer cell lines originate from the American Type Culture Collection (Rockville, Md., USA) and were grown according to the recommendations of the supplier.
(§3) The cells A549, U87, MDA-MB231, MDA-MB435 and B16F10 were grown in a culture medium “Dulbecco minimal essential medium” (DMEM) containing 4.5 g/L of glucose and supplemented with 10% fetal calf serum and 1% glutamine. The K562 and HCT116 were grown in an RPMI 1640 medium containing 10% fetal calf serum and 1% glutamine. All the cell lines were maintained in the culture at 37° C. in a humid atmosphere containing 5% of CO2. Cell viability was evaluated by using the reagent “CellTiter-Blue™” (Promega, Wis., USA) while observing the instructions of the manufacturer. The cells were sown in 96-well culture plates with 5000 cells per well in 50 μL of culture medium. After 24 hours of culture, the compounds of general formula (I) dissolved in DMSO were individually added into each of the wells in an amount of 50 μl per well. All the compounds were tested in triplicate for each defined concentration and each experiment was repeated three times. After 72 hours of incubation, 20 μL of resazurin were added in each well. After 2 hours of incubation, the emitted fluorescence was measured at 590 nm after excitation at 560 nm by means of a fluorescence reader of the Victor type (Perkin-Elmer, USA).
(§4) The concentration of each of the compounds which induces the death of 50% of the cells (IC50) was determined after 72 hours of incubation. Certain compounds according to the invention have an IC50 of the order of one nanomolar concentration, therefore equivalent to CA-4 taken as a reference.

U87 = experiment: Study of cytotoxicity (CellTiter-Blue, 72 hours); assay type: cell-based; conditions: Homo sapiens, U-87 MG; 72 hours of incubation; read-out: IC50 for different cell lines: U87
Experimental: as §1, §2, §3, §4

A549 = experiment: Study of cytotoxicity (CellTiter-Blue, 72 hours); assay type: cell-based; conditions: Homo sapiens, A549; 72 hours of incubation; read-out: IC50 for different cell lines: A549
Experimental: as §1, §2, §3, §4

HCT116 = experiment: Study of cytotoxicity (CellTiter-Blue, 72 hours); assay type: cell-based; conditions: Homo sapiens, HCT-116; 72 hours of incubation; read-out: IC50 for different cell lines: HCT116
Experimental: as §1, §2, §3, §4

MDA-MB 231 = experiment: Study of cytotoxicity (CellTiter-Blue, 72 hours); assay type: cell-based; conditions: Homo sapiens, MDA-MB-231; 72 hours of incubation; read-out: IC50 for different cell lines: M231
Experimental: as §1, §2, §3, §4

K562 = experiment: Study of cytotoxicity (CellTiter-Blue, 72 hours); assay type: cell-based; conditions: Homo sapiens, 72 hours of incubation, read-out: IC50 for different cell lines: K562
Experimental: as §1, §2, §3, §4

B16F10 = experiment: Study of cytotoxicity (CellTiter-Blue, 72 hours); assay type: cell-based, human; conditions: Mus musculus, B16-F10; 72 hours of incubation; read-out: IC50 for different cell lines: B16F10
Experimental: as §1, §2
The cells A549, U87, MDA-MB231, MDA-MB435 and B16F10 were grown in a culture medium “Dulbecco minimal essential medium” (DMEM) containing 4.5 g/L of glucose and supplemented with 10% fetal calf serum and 1% glutamine. […] Cell viability was evaluated by using the reagent “CellTiter-Blue™” (Promega, Wis., USA) while observing the instructions of the manufacturer. […] After 2 hours of incubation, the emitted fluorescence was measured at 590 nm after excitation at 560 nm by means of a fluorescence reader of the Victor type (Perkin-Elmer, USA). […]

[1] = system: human colon tumors LS174T xenografted in Nude mice; experiment: Antivascular activity in vivo (MRI, Dotarem entry into tumors); conditions: LS174T xenograft
Experimental: The antivascular effect of the molecule (I-1) was tested on mice bearing human tumors by comparison with the positive control DMXAA, according to the procedure described by Beauregard et al. (NMR Biomed., 2002, 15:99-105).
Thus, CD-1 Nude female mice were xenografted by subcutaneous injection of human colon tumoral cells (LS174T). The mice bearing tumors were then treated with 0.9% NaCl (carrier, 10 mL/kg), DMXAA (27.5 mg/kg) via an intraperitoneal route (IP) or the molecule (I-1) (45 mg/kg) via an intravenous route (IV). Three hours after administration, the mice were treated with the Dotarem® contrast agent intravenously (IV). The penetration of the contrast agent into the tumors was followed in real time by magnetic resonance imaging (MRI) and is expressed by an enhancement of the intensity of the signal in the tumors. Densitometric analysis of the acquired images allows determination of the maximum enhancement (Rmax) as well as the slope P0 corresponding to the entry rate of Dotarem® into the tumors.

MDA-MB231 cells = experiment: Study of the cell cycle (flow cytometry); assay type: cell-based, human; conditions: MDA-MB231, 24 hours, 5 nM
Experimental: (§5) The K562 and MDA-MB231 cells are sown in 6-well culture plates with 300,000 cells per well in their respective media as described above. After 24 hours of culture, the compound (I-1) was added in each of the wells at different concentrations. After 24 hours of incubation, the cells are collected individually in 15 mL tubes and then centrifuged. The cells are then washed twice in cold PBS and then re-suspended in 1 mL of PBS, fixed by adding 2 mL of cold absolute ethanol and placed at 4° C. for 1 hour. After centrifugation, the cells are washed twice in PBS and then the cell pellet is taken up in 100 μL of Triton X100 at 1%. After 30 minutes of incubation at room temperature, 50 μL of RNase A boiled beforehand (1 mg/mL) and 500 μL of propidium iodide (50 μg/mL) are added into each tube and incubated in the dark at room temperature for 30 minutes. The distribution of the number of cells in each of the phases of the cell cycle is then determined by flow cytometry with a cytometer of the FC500 type (Beckman-Coulter, France).
(§6) This effect is significant after 24 hours of exposure of the cells to the compound (I-1) used at a concentration of 5 nM (FIG. 1).

K562 cells = experiment: Study of the cell cycle (flow cytometry); assay type: cell-based, human; conditions: K562, 24 hours, 5 nM
Experimental: as §5, §6

[2] = 3 hours after administration, DMXAA 27.5 mg/kg IP, (I-1) 45 mg/kg IV

C=C(c1ccc(OC)c(O)c1)c1cc(OC)c(OC)c(OC)c1 [(I-1)]
IC50 (MDA-MB 435): 4.5 nM
IC50 (U87): 8 nM
IC50 (A549): 8 nM
IC50 (HCT116): 2 to 4 nM
IC50 (MDA-MB 231): 4 nM
IC50 (K562): 5 nM
IC50 (B16F10): 2 nM
Antivascular effect in vivo ([1]; 45 mg/kg IV): has an antivascular effect
Average of P0 [1, 2]: 1.53±0.82 arbitrary unit
Average of Rmax [1, 2]: 67.56±33.10 % of the NaCl control
Effect on cell cycle (MDA-MB231 cells): blocks cell division in the G2/M phase
Effect on cell cycle (K562 cells): blocks cell division in the G2/M phase

— patent US8273768B2, “Iso CA-4 and analogues thereof as potent cytotoxic agents inhibiting tubuline polymerization” (Centre National de la Recherche Scientifique (CNRS), priority 2007, dated 2012)
